Results on two compounds are retold here after patent publication US20220233550A1, “PARP INHIBITOR PELLET PREPARATION AND PREPARATION PROCESS THEREFOR” (BEIGENE, LTD., priority 2019, published 2022).

Series [1] concerns BRCA variant in vitro xenograft model. Particulars: vs Olaparib; cited from earlier work.
For another series, the system named is CYP. To be noted: cited from earlier work.
The conditions of series [2]: sesquihydrate; cited from earlier work.
The next series deals with PARP. Particulars: compared with Olaparib and other PARP inhibitors (such as Veliparib); cited from earlier work.
Another series deals with PARP-1/2. To be noted: cited from earlier work.
The nature of series [3]: Fluidity, judged from electron microscope images. Particulars: electron microscope image, FIG. 1 / FIG. 2. It counts as physicochemical. An excerpt:
FIG. 1 of the description is an electron microscope image of the drug substance Pamiparib, and since the drug substance BGB290 contains crystal water, is very easily agglomerated, and has a poor fluidity, which is not conducive to capsule filling, thereby affecting the industrialized mass production of a formulation. In addition, FIG. 2 of the description is an electron microscope image of the pellets of Example 1. It can be seen from the image that the pellets are round in shape, can be evenly spread under the field of view of an electron microscope, and has a good fluidity. It is sufficient to fulfil the filling of the capsule.

The conditions of series [4]: rodents; cited from earlier work.
For series [5] the following is noted: cited from earlier work.
The subject of series [6] is cell lines with BRCA1/2 mutations or other HR defects. Particulars: cited from earlier work.

As to `C[C@]12CCCN1CC1=NNC(=O)c3cc(F)cc4[nH]c2c1c34` [Pamiparib, (R)-2-fluoro-10a-methyl-7,8,9,10,10a,11-hexahydro-5,6,7a,11-tetraazacyclohepta[def]cyclopenta[a]fluoren-4(5H)-one sesquihydrate], the “activity relative to Olaparib” value in series [1] was “about 16 times”. The CYP inhibitory activity result in the series on CYP is “no CYP inhibitory activity”. Moreover, the chemical stability result in series [2] is “excellent chemical stability”. In addition, the DNA capture activity result with PARP is “stronger DNA capture activity”. Also, the PARP1/2 selectivity result in the series on PARP-1/2 (compared with Olaparib and other PARP inhibitors (such as Veliparib)) is “better PARP1/2 selectivity”. Further, in series [3], the fluidity result is listed as “poor fluidity”. For the same compound, in series [4], the tolerance entry is “good tolerance” and the treatment window result is given as “about 10 folds”. Further, the brain permeability result in [5] is “significant brain permeability”.
With `C[C@]12CCCN1CC1=NNC(=O)c3cc(F)cc4[nH]c2c1c34` [drawing 1, (R)-2-fluoro-10a-methyl-7,8,9,10,10a,11-hexahydro-5,6,7a,11-tetraazacyclohepta[def]cyclopenta[a]fluoren-4(5H)-one], in series [6], the inhibition of proliferation entry is recorded as “can effectively inhibit the proliferation”. Moreover, the “selectivity for PARP-1/2” value with PARP-1/2 (free compound of WO 2013/097225A1) is listed as “high selectivity for PARP-1/2”.
